Data: ChEMBL document CHEMBL4800729 (2021)

Experiments:
[1] = biological target: Serine/threonine-protein kinase 38 (Homo sapiens) (UniProt Q15208); test: NDR1(h) Millipore kinase panel; details: Compound concentration 1.0 uM
[2] = biological target: Serine/threonine-protein kinase NIM1 (Homo sapiens) (UniProt Q8IY84); test: NIM1(h) Millipore kinase panel; details: Compound concentration 1.0 uM
[3] = biological target: Casein kinase I isoform epsilon (Homo sapiens) (UniProt P49674); test: CK1epsilon(h) Millipore kinase panel; details: Compound concentration 1.0 uM
[4] = biological target: Serine/threonine-protein kinase MAK (Homo sapiens) (UniProt P20794); test: MAK(h) Millipore kinase panel; details: Compound concentration 1.0 uM
[5] = biological target: Epithelial discoidin domain-containing receptor 1 (Homo sapiens) (UniProt Q08345); test: DDR1(h) Millipore kinase panel; details: Compound concentration 1.0 uM
[6] = biological target: Tyrosine-protein kinase Yes (Homo sapiens) (UniProt P07947); test: Yes(h) Millipore kinase panel; details: Compound concentration 1.0 uM
[7] = biological target: Activin receptor type-2A (Homo sapiens) (UniProt P27037); test: ACTR2(h) Millipore kinase panel; details: Compound concentration 1.0 uM
[8] = biological target: T1, Muscarinic acetylcholine receptor M1 (Homo sapiens) (UniProt P11229); details: Compound concentration 10.0 uM
T1 sequence (whole entry): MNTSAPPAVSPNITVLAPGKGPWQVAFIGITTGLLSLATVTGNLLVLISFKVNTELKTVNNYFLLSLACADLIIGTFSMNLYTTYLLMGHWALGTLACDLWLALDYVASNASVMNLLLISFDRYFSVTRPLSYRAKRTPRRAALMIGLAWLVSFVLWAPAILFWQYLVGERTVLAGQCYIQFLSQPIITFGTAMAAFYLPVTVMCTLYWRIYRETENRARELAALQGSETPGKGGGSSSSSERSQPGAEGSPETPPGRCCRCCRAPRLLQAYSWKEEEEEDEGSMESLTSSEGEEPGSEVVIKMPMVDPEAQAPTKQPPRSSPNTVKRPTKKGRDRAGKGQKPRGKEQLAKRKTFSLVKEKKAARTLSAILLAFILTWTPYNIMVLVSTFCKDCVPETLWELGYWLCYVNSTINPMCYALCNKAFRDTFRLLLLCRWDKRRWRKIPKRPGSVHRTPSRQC

[9] = biological target: Adenosine receptor A2a (Homo sapiens) (UniProt P29274); details: Compound concentration 10.0 uM
[10] = biological target: Serine/threonine-protein kinase 17B (Homo sapiens) (UniProt O94768); test: DRAK2(h) Millipore kinase panel; details: Compound concentration 1.0 uM
[11] = biological target: Ribosomal protein S6 kinase alpha-6 (Homo sapiens) (UniProt Q9UK32); test: Rsk4(h) Millipore kinase panel; details: Compound concentration 1.0 uM
[12] = biological target: Dual specificity tyrosine-phosphorylation-regulated kinase 1B (Homo sapiens) (UniProt Q9Y463); test: DYRK1B(h) Millipore kinase panel; details: Compound concentration 1.0 uM
[13] = biological target: Serine/threonine-protein kinase 3 (Homo sapiens) (UniProt Q13188); test: MST2(h) Millipore kinase panel; details: Compound concentration 1.0 uM
[14] = biological target: RAC-alpha serine/threonine-protein kinase (Homo sapiens) (UniProt P31749); test: PKBalpha(h) Millipore kinase panel; details: Compound concentration 1.0 uM
[15] = biological target: Serine/threonine-protein kinase ULK1 (Homo sapiens) (UniProt O75385); test: ULK1(h) Millipore kinase panel; details: Compound concentration 1.0 uM
[16] = biological target: RAF proto-oncogene serine/threonine-protein kinase (Homo sapiens) (UniProt P04049); test: c-RAF(h) Millipore kinase panel; details: Compound concentration 1.0 uM
[17] = biological target: Androgen receptor (Homo sapiens) (UniProt P10275); details: Compound concentration 10.0 uM
[18] = biological target: Phosphodiesterase 3 (Homo sapiens) (UniProt Q14432+Q13370); test: Inhibition of Phosphodiesterase PDE3 at compound concentration of 10.0 uM in the Eurofins-Panlabs enzyme assay (Eurofins_assay_152000); format: protein assay; parameters: substrate with concentration 1.01 uM [3H] cAMP + cAMP, incubation time 20 min, incubation temperature 25 C; details: Compound concentration 10.0 uM
[19] = biological target: MAP/microtubule affinity-regulating kinase 3 (Homo sapiens) (UniProt P27448); test: MARK3(h) Millipore kinase panel; details: Compound concentration 1.0 uM
[20] = biological target: Ribosomal protein S6 kinase alpha-2 (Homo sapiens) (UniProt Q15349); test: Rsk3(h) Millipore kinase panel; details: Compound concentration 1.0 uM
[21] = biological target: Serine/threonine-protein kinase BRSK2 (Homo sapiens) (UniProt Q8IWQ3); test: BrSK2(h) Millipore kinase panel; details: Compound concentration 1.0 uM
[22] = biological target: D(2) dopamine receptor (Homo sapiens) (UniProt P14416); details: Compound concentration 10.0 uM
[23] = biological target: Serine/threonine-protein kinase tousled-like 1 (Homo sapiens) (UniProt Q9UKI8); test: TLK1(h) Millipore kinase panel; details: Compound concentration 1.0 uM
[24] = biological target: MAP/microtubule affinity-regulating kinase 4 (Homo sapiens) (UniProt Q96L34); test: MARK4(h) Millipore kinase panel; details: Compound concentration 1.0 uM
[25] = biological target: Cyclin-dependent kinase-like 3 (Homo sapiens) (UniProt Q8IVW4); test: CDKL3(h) Millipore kinase panel; details: Compound concentration 1.0 uM
[26] = biological target: G protein-coupled receptor kinase 6 (Homo sapiens) (UniProt P43250); test: GRK6(h) Millipore kinase panel; details: Compound concentration 1.0 uM
[27] = biological target: Adenosine receptor A3 (Homo sapiens) (UniProt P0DMS8); details: Compound concentration 10.0 uM
[28] = biological target: Serine/threonine-protein kinase WNK4 (Homo sapiens) (UniProt Q96J92); test: WNK4(h) Millipore kinase panel; details: Compound concentration 1.0 uM
[29] = biological target: 5-hydroxytryptamine receptor 2C (Homo sapiens) (UniProt P28335); details: Compound concentration 10.0 uM
[30] = biological target: Platelet-derived growth factor receptor beta (Homo sapiens) (UniProt P09619); test: PDGFRbeta(h) Millipore kinase panel; details: Compound concentration 1.0 uM
[31] = biological target: T2, 5-hydroxytryptamine receptor 1A (Homo sapiens) (UniProt P08908); details: Compound concentration 10.0 uM
T2 sequence (whole entry): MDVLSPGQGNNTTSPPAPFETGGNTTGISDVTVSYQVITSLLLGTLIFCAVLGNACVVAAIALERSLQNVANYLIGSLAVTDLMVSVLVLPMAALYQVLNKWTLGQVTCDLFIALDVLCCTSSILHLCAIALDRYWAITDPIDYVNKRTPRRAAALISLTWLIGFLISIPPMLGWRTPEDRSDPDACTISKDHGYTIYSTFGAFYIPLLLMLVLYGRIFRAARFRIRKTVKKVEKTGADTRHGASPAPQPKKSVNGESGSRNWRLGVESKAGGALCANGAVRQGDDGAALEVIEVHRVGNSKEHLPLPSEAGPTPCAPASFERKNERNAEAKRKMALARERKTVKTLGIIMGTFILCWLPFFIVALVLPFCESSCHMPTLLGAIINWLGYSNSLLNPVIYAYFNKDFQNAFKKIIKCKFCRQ

[32] = biological target: Prostaglandin G/H synthase 2 (Homo sapiens) (UniProt P35354); test: Cyclooxygenase COX-2 Eurofins-Panlabs enzyme assay; parameters: substrate with concentration; details: Compound concentration 10.0 uM
[33] = biological target: D(2) dopamine receptor (Homo sapiens) (UniProt P14416); details: Compound concentration 10.0 uM; remark: listed apart in the source
[34] = biological target: Serine/threonine-protein kinase WNK3 (Homo sapiens) (UniProt Q9BYP7); test: WNK3(h) Millipore kinase panel; details: Compound concentration 1.0 uM
[35] = biological target: Wee1-like protein kinase 2 (Homo sapiens) (UniProt P0C1S8); test: Wee1B(h) Millipore kinase panel; details: Compound concentration 1.0 uM
[36] = biological target: Homeodomain-interacting protein kinase 1 (Homo sapiens) (UniProt Q86Z02); test: HIPK1(h) Millipore kinase panel; details: Compound concentration 1.0 uM

`CC[C@@H](Nc1c(C#N)c(-c2ccc(-c3cccc(C)c3F)cc2)nc2cnccc12)C(=O)O` [BAY-091] was tested. Which inhibition [1] did it give?
Its inhibition is -6%.

What about the inhibition [2] of the same compound?
Its inhibition is 12%.

What about the inhibition [3] of the same compound?
The inhibition was 8.85%.

And the inhibition [4]?
Its inhibition is 9.23%.

What about the inhibition [5] of the same compound?
The inhibition was 11.7%.

What about the inhibition [6] of the same compound?
The inhibition was -3.76%.

And the inhibition [7]?
Its inhibition is 1.17%.

What about the inhibition [8] of the same compound?
Its inhibition is 13%.

And the inhibition [9]?
The inhibition was 7%.

And the inhibition [10]?
The inhibition was 7.08%.

And the inhibition [11]?
Its inhibition is -6.19%.

What about the inhibition [12] of the same compound?
The inhibition was 12.1%.

What about the inhibition [13] of the same compound?
The inhibition was 0.08%.

What about the inhibition [14] of the same compound?
Its inhibition is -1.04%.

And the inhibition [15]?
Its inhibition is 14.2%.

And the inhibition [16]?
The inhibition was 36%.

And the inhibition [17]?
The inhibition was 14%.

And the inhibition [18]?
Its inhibition is 74%.

What about the inhibition [19] of the same compound?
The inhibition was -4.67%.

And the inhibition [20]?
Its inhibition is 10.9%.

What about the inhibition [21] of the same compound?
The inhibition was 3.83%.

What about the inhibition [22] of the same compound?
The inhibition was 13.8%.

And the inhibition [23]?
The inhibition was -0.87%.

And the inhibition [24]?
The inhibition was 5.8%.

What about the inhibition [25] of the same compound?
The inhibition was 8.18%.

And the inhibition [26]?
The inhibition was 0.16%.

What about the inhibition [27] of the same compound?
The inhibition was 21%.

What about the inhibition [28] of the same compound?
Its inhibition is 11.1%.

What about the inhibition [29] of the same compound?
Its inhibition is 29%.

What about the inhibition [30] of the same compound?
The inhibition was 9.33%.

And the inhibition [31]?
The inhibition was -4.91%.

And the inhibition [32]?
The inhibition was 29%.

What about the inhibition [33] of the same compound?
The inhibition was 10%.

What about the inhibition [34] of the same compound?
Its inhibition is -1.89%.

And the inhibition [35]?
The inhibition was 9.64%.

And the inhibition [36]?
The inhibition was 3.6%.
